PMC12396409, “Screening and hit evaluation of a microbial metabolite library against the pathogenic Plasmodium falciparum and Toxoplasma gondii parasites” (International Journal for Parasitology: Drugs and Drug …, 2025)
Where two headings read alike, the source gives them in different places.

Assays:
[1] = system: T. gondii RH strain (RH-Tub-eYFP) tachyzoites; experiment: microbe, parasite or virus in culture; type: cell-based, Toxoplasma gondii; conditions: 72 h, 72 h; for percent parasite growth at 2 µg/mL: Toxoplasma gondii
[2] = system: P. falciparum 3D7 parasites; experiment: P. falciparum growth inhibition assay, 1-cycle (72 h treatment), SYBR DNA staining (library screen at 2 μg/mL and dose-response); type: cell-based, Plasmodium falciparum; conditions: for activity at 2 µg/mL: Plasmodium falciparum
[3] = system: P. falciparum 3D7 parasites; experiment: P. falciparum growth inhibition assay, 2-cycle (120 h treatment), delayed-death screen and dose-response; type: cell-based, Plasmodium falciparum; conditions: for activity at 2 µg/mL: Plasmodium falciparum
[4] = T. gondii, screen at 2 μg/mL, replicate 1, read-out: Tg_72h_%Growth_Rep1
[5] = T. gondii, screen at 2 μg/mL, replicate 2, read-out: Tg_72h_%Growth_Rep2
[6] = library screen at 2 μg/mL, % growth, replicate 1
[7] = library screen at 2 μg/mL, % growth, replicate 2
[8] = library screen at 2 μg/mL, 72 h, % growth, replicate 1
[9] = library screen at 2 μg/mL, 72 h, % growth, replicate 2
[10] = library screen at 2 μg/mL, 120 h, % growth, replicate 1
[11] = library screen at 2 μg/mL, 120 h, % growth, replicate 2
[12] = T. gondii, screen at 2 μg/mL, replicate 1
[13] = T. gondii, screen at 2 μg/mL, replicate 2
[14] = P. falciparum, 72 h, screen at 2 μg/mL, replicate 1
[15] = P. falciparum, 72 h, screen at 2 μg/mL, replicate 2
[16] = P. falciparum, 120 h, screen at 2 μg/mL, replicate 1
[17] = P. falciparum, 120 h, screen at 2 μg/mL, replicate 2

`CCC[C@H]1CC2=C(C[C@@H](CC)CC3=C1C(=O)OC3=O)C(=O)OC2=O` [Byssochlamic acid] was tested, and the percent parasite growth at 2 µg/mL [1, 4] was 92.1%, the percent parasite growth at 2 µg/mL [1, 5] was 94.4% and the activity at 2 µg/mL ([2]; 3D7, P. falciparum, 72 h, screen at 2 μg/mL, replicate 1, read-out: Pf_72h_%Growth_Rep1) was 89.8%. It also gave an activity at 2 µg/mL ([2]; 3D7, P. falciparum, 72 h, screen at 2 μg/mL, replicate 2, read-out: Pf_72h_%Growth_Rep2) of 83.3%, an activity at 2 µg/mL ([3]; 3D7, P. falciparum, 120 h, screen at 2 μg/mL, replicate 1, read-out: Pf_120h_%Growth_Rep1) of 129% and an activity at 2 µg/mL ([3]; 3D7, P. falciparum, 120 h, screen at 2 μg/mL, replicate 2, read-out: Pf_120h_%Growth_Rep2) of 88.1%.
`COC1CC(OC2C(C)OC(OC3C(C)=CCC4CC(CC5(CCC(C)C(C(C)C)O5)O4)OC(=O)C4C=C(C)C(O)C5OCC(=CC=CC3C)C45O)CC2OC)OC(C)C1O` (stereo not drawn) [BIA-I1117] showed a Tg_72h_%Growth_Rep1 ([1]; T. gondii RH, library screen at 2 μg/mL, % growth, replicate 1) of 121.89%, a Tg_72h_%Growth_Rep2 ([1]; T. gondii RH, library screen at 2 μg/mL, % growth, replicate 2) of 92.41% and a Pf_72h_%Growth_Rep1 ([2]; P. falciparum 3D7, 72 h, library screen at 2 μg/mL, % growth, replicate 1) of 83.64%. It also gave a Pf_72h_%Growth_Rep2 ([2]; P. falciparum 3D7, 72 h, library screen at 2 μg/mL, % growth, replicate 2) of 117.79%, a Pf_120h_%Growth_Rep1 ([3]; P. falciparum 3D7, 120 h, library screen at 2 μg/mL, % growth, replicate 1) of 88.89% and a Pf_120h_%Growth_Rep2 ([3]; P. falciparum 3D7, 120 h, library screen at 2 μg/mL, % growth, replicate 2) of 109.63%.
`O=C(O)c1ccc[nH]1` [Pyrrole-2-carboxylic acid] showed a percent parasite growth at 2 µg/mL ([1]; T. gondii, parasite screen 2 μg/mL, % growth, replicate 1, read-out: Tg_72h_%Growth_Rep1) of 130%, a percent parasite growth at 2 µg/mL ([1]; T. gondii, parasite screen 2 μg/mL, % growth, replicate 2, read-out: Tg_72h_%Growth_Rep2) of 86.8% and an activity at 2 µg/mL ([2]; 3D7, P. falciparum, 72 h, parasite screen 2 μg/mL, % growth, replicate 1, read-out: Pf_72h_%Growth_Rep1) of 86.7%. For the same molecule, the activity at 2 µg/mL ([2]; 3D7, P. falciparum, 72 h, parasite screen 2 μg/mL, % growth, replicate 2, read-out: Pf_72h_%Growth_Rep2) was 115%, the activity at 2 µg/mL ([3]; 3D7, P. falciparum, 120 h, parasite screen 2 μg/mL, % growth, replicate 1, read-out: Pf_120h_%Growth_Rep1) was 88.6% and the activity at 2 µg/mL ([3]; 3D7, P. falciparum, 120 h, parasite screen 2 μg/mL, % growth, replicate 2, read-out: Pf_120h_%Growth_Rep2) was 136%.
`CC(C)[C@H]1C(=O)OC[C@H](NC(=O)c2nc3ccccc3cc2O)C(=O)N2CCCC[C@@H]2C(=O)NCC(=O)N(C)CC(=O)N(C)[C@H](C(C)C)C(=O)OC[C@@H](NC(=O)c2nc3ccccc3cc2O)C(=O)N2CCCC[C@@H]2C(=O)NCC(=O)N(C)CC(=O)N1C` [Sandramycin] gave a Tg_72h_%Growth_Rep1 ([1]; T. gondii, parasite screen 2 μg/mL, % growth, replicate 1) of 1.61%, a Tg_72h_%Growth_Rep2 ([1]; T. gondii, parasite screen 2 μg/mL, % growth, replicate 2) of 2.90% and a Pf_72h_%Growth_Rep1 ([2]; P. falciparum, 72 h, parasite screen 2 μg/mL, % growth, replicate 1) of -1.10%. The Pf_72h_%Growth_Rep2 ([2]; P. falciparum, 72 h, parasite screen 2 μg/mL, % growth, replicate 2) was -0.11%, the Pf_120h_%Growth_Rep1 ([3]; P. falciparum, 120 h, parasite screen 2 μg/mL, % growth, replicate 1) was -0.53% and the Pf_120h_%Growth_Rep2 ([3]; P. falciparum, 120 h, parasite screen 2 μg/mL, % growth, replicate 2) was 18.12%.
`CC(=O)NCCc1c[nH]c2ccc(O)cc12` [Acetylserotonin, N-] showed a Tg_72h_%Growth_Rep1 [1, 6] of 128.90%, a Tg_72h_%Growth_Rep2 [1, 7] of 97.07% and a Pf_72h_%Growth_Rep1 [2, 8] of 83.62%. For the same molecule, the Pf_72h_%Growth_Rep2 [2, 9] was 79.72%, the Pf_120h_%Growth_Rep1 [3, 10] was 81.51% and the Pf_120h_%Growth_Rep2 [3, 11] was 80.80%.
Molecule `CC(C)=CC(=O)C[C@H](C)c1ccc(C)cc1` [Turmerone] has a Tg_72h_%Growth_Rep1 [1, 12] of 108.84%, a Tg_72h_%Growth_Rep2 [1, 13] of 94.24% and a Pf_72h_%Growth_Rep1 [2, 14] of 81.95%. The Pf_72h_%Growth_Rep2 [2, 15] was 115.94%, the Pf_120h_%Growth_Rep1 [3, 16] was 78.99% and the Pf_120h_%Growth_Rep2 [3, 17] was 84.67%.
With `O=C(O)/C=C/c1ccc(O)cc1` [Coumaric acid, p-] the Tg_72h_%Growth_Rep1 [1, 12] was 117.43%, the Tg_72h_%Growth_Rep2 [1, 13] was 104.71% and the Pf_72h_%Growth_Rep1 [2, 14] was 85.52%. The Pf_72h_%Growth_Rep2 [2, 15] was 91.08%, the Pf_120h_%Growth_Rep1 [3, 16] was 65.95% and the Pf_120h_%Growth_Rep2 [3, 17] was 100.33%.
`CCCCCCCC(=O)N[C@H]1CCOC1=O` [BIA-O1496] gave a Tg_72h_%Growth_Rep1 ([1]; T. gondii, parasite screen at 2 μg/mL, % growth, replicate 1) of 127.37%, a Tg_72h_%Growth_Rep2 ([1]; T. gondii, parasite screen at 2 μg/mL, % growth, replicate 2) of 91.78% and a Pf_72h_%Growth_Rep1 ([2]; P. falciparum 3D7, 72 h, parasite screen at 2 μg/mL, % growth, replicate 1) of 81.24%. For the same molecule, the Pf_72h_%Growth_Rep2 ([2]; P. falciparum 3D7, 72 h, parasite screen at 2 μg/mL, % growth, replicate 2) was 83.86%, the Pf_120h_%Growth_Rep1 ([3]; P. falciparum 3D7, 120 h, parasite screen at 2 μg/mL, % growth, replicate 1) was 82.04% and the Pf_120h_%Growth_Rep2 ([3]; P. falciparum 3D7, 120 h, parasite screen at 2 μg/mL, % growth, replicate 2) was 138.56%.
With `C[C@H]1OC(=O)C=C[C@@H](O)[C@@H](O)CCCCCCCC[C@@H]1O` [Berkeleylactone F] the Tg_72h_%Growth_Rep1 [1, 6] was 83.11%, the Tg_72h_%Growth_Rep2 [1, 7] was 88.17% and the Pf_72h_%Growth_Rep1 [2, 8] was 78.45%. For the same molecule, the Pf_72h_%Growth_Rep2 [2, 9] was 83.14%, the Pf_120h_%Growth_Rep1 [3, 10] was 146.18% and the Pf_120h_%Growth_Rep2 [3, 11] was 96.20%.
In the case of `CN1C(=O)[C@@]23C[C@]4([C@]56C[C@@]78SS[C@@](CO)(C(=O)N7[C@H]5Nc5ccccc56)N(C)C8=O)c5ccccc5N[C@@H]4N2C(=O)[C@]1(CO)SS3` [Chaetocin], the percent parasite growth at 2 µg/mL [1, 4] was 0.84%, the percent parasite growth at 2 µg/mL [1, 5] was 2.33% and the activity at 2 µg/mL ([2]; 3D7, 72 h, P. falciparum, 72 h, screen at 2 μg/mL, replicate 1, read-out: Pf_72h_%Growth_Rep1) was 10.9%. For the same molecule, the activity at 2 µg/mL ([2]; 3D7, 72 h, P. falciparum, 72 h, screen at 2 μg/mL, replicate 2, read-out: Pf_72h_%Growth_Rep2) was 11.2%, the activity at 2 µg/mL ([3]; 3D7, 120 h, P. falciparum, 120 h, screen at 2 μg/mL, replicate 1, read-out: Pf_120h_%Growth_Rep1) was 16.4% and the activity at 2 µg/mL ([3]; 3D7, 120 h, P. falciparum, 120 h, screen at 2 μg/mL, replicate 2, read-out: Pf_120h_%Growth_Rep2) was 23.8%.
